In one experiment the target is T1, HSP90α protein (Homo sapiens, UniProt P07900).
T1 construct: purchased BPS Bioscience #50298
As to the kind of experiment: HSP90α-binding FP (BODIPY) assay. The settings on record: FP competition with BODIPY-labeled RNK04010. On the procedure:
Binding of test compounds to HSP90α protein was measured by fluorescent polarization (FP) using the HSP90α (N-terminal) Assay Kit (BPS Bioscience, #50298), following the manufacturer's instructions, except as noted. Fluorescently labeled HSP90-binding compounds, either the provided FITC-geldanamycin (5 nM final concentration) or RNK04010, a triazolone-based HSP90 binding small molecule labeled with BODIPY through a piperazine-phenyl linker (5 nM final concentration) were employed. A 2.5-fold serial dilution of each test compound ranging from 20 μM to 5.2 nM was assayed for binding to HSP90α. After the final step of adding HSP90α protein to each assay well, plates were mixed by brief shaking, incubated at 25° C. for 120 min for FITC-geldanamycin or 300 min for RNK04010, and fluorescence was measured using a PerkinElmer EnVision Plate Reader.

Experiment [1] has as its system MV-4-11 human acute myeloid leukemia. As to the kind of experiment: MV-4-11 CCK-8 proliferation assay. The experiment is classed as cell-based. The conditions noted are these: Homo sapiens, MV4-11; MV-4-11 cells, 72 hr. The method, boiled down:
(§1)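 CCK-8 absorbance read-out, with inhibition expressed against DMSO-treated cells after subtracting a cell-free DMSO medium blank. Compounds tested over a 3-fold dilution series spanning 20 μM to 1.02 nM; lines grown essentially as ATCC recommends.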
(Tetrazolium assays rely on reduction of a dye to a coloured formazan, in cell work by metabolically active cells.)

Experiment [2] concerns U-87 MG human glioblastoma. As to the kind of experiment: U87 MG CCK-8 proliferation assay. In kind it is cell-based. The settings on record: Homo sapiens, U-87 MG, 72 h, U-87 MG cells, read-out: U87MG CCK-8. The method, boiled down: as §1

Regarding `CCOc1cc(N2CCC(C(=O)N3CCN(c4ccc(-n5c(O)nnc5-c5cc(C(C)C)c(O)cc5O)cc4)CC3)CC2)ccc1Nc1ncc2c(n1)N(C)c1ccccc1C(=O)N2C` [Compound 023, 2-((4-(4-(4-(4-(3-(2,4-dihydroxy-5-isopropylphenyl)-5-hydroxy-4H-1,2,4-triazol-4-yl)phenyl)piperazine-1-carbonyl)piperidin-1-yl)-2-ethoxyphenyl)amino)-5,11-dimethyl-5,11-dihydro-6H-benzo[e]pyrimido[5,4-b][1,4]diazepin-6-one], the IC50 (commonly the midpoint of a concentration-inhibition curve) at HSP90α protein is 0.1 to 1 µM. Besides, the EC50 in experiment [1] was less than 0.1 µM; in experiment [2], 0.1 to 1 µM.
Compound `CCOc1cc(N2CCC(C(=O)N3CCC(CN4CCN(Cc5ccc(-n6c(C(N)=O)nnc6-c6cc(CC)c(O)cc6O)cc5)CC4)CC3)CC2)ccc1Nc1ncc2c(n1)N(C)c1ccccc1C(=O)N2C` [Compound 034, 4-(4-((4-((1-(1-(4-((5,11-dimethyl-6-oxo-6,11-dihydro-5H-benzo[e]pyrimido[5,4-b][1,4]diazepin-2-yl)amino)-3-ethoxyphenyl)piperidine-4-carbonyl)piperidin-4-yl)methyl)piperazin-1-yl)methyl)phenyl)-5-(5-ethyl-2,4-dihydroxyphenyl)-4H-1,2,4-triazole-3-carboxamide] gave a 50% inhibitory concentration (IC50) on HSP90α protein of 0.1 to 1 µM. For the same compound, the results for the EC50 in experiment [1] and in experiment [2] were less than 0.1 µM and 0.1 to 1 µM, respectively.
In the case of `CCOc1cc(N2CCC(C(=O)NCC3CCN(C(=O)C4CCN(Cc5ccc(-n6c(O)nnc6-c6cc(C(C)C)c(O)cc6O)cc5)CC4)CC3)CC2)ccc1Nc1ncc2c(n1)N(C)c1ccccc1C(=O)N2C` [Compound 041, N-((1-(1-(4-(3-(2,4-dihydroxy-5-isopropylphenyl)-5-hydroxy-4H-1,2,4-triazol-4-yl)benzyl)piperidine-4-carbonyl)piperidin-4-yl)methyl)-1-(4-((5,11-dimethyl-6-oxo-6,11-dihydro-5H-benzo[e]pyrimido[5,4-b][1,4]diazepin-2-yl)amino)-3-ethoxyphenyl)piperidine-4-carboxamide], the 50% inhibitory concentration (IC50) on HSP90α protein was less than 0.1 µM. For the same compound, the EC50 in experiment [1] and in experiment [2] was less than 0.1 µM each time.
Regarding `CCOc1cc(N2CCC(C(=O)N3CCC(CN4CCC(Cc5ccc(-n6c(O)nnc6-c6cc(C(C)C)c(O)cc6O)cc5)CC4)CC3)CC2)ccc1Nc1ncc2c(n1)N(C)c1ccccc1C(=O)N2C` [Compound 044, 2-((4-(4-(4-((4-(4-(3-(2,4-dihydroxy-5-isopropylphenyl)-5-hydroxy-4H-1,2,4-triazol-4-yl)benzyl)piperidin-1-yl)methyl)piperidine-1-carbonyl)piperidin-1-yl)-2-ethoxyphenyl)amino)-5,11-dimethyl-5,11-dihydro-6H-benzo[e]pyrimido[5,4-b][1,4]diazepin-6-one], the IC50 on HSP90α protein was less than 0.1 µM. Besides, the EC50 in experiment [1] and in experiment [2] was less than 0.1 µM throughout.
`CCOc1cc(N2CCC(C(=O)N[C@H](C)c3ccc(CN4CCC(Cc5ccc(-n6c(O)nnc6-c6cc(C(C)C)c(O)cc6O)cc5)CC4)cc3)CC2)ccc1Nc1ncc2c(n1)N(C)c1ccccc1C(=O)N2C` [Compound 045, (R)—N-(1-(4-((4-(4-(3-(2,4-dihydroxy-5-isopropylphenyl)-5-hydroxy-4H-1,2,4-triazol-4-yl)benzyl)piperidin-1-yl)methyl)phenyl)ethyl)-1-(4-((5,11-dimethyl-6-oxo-6,11-dihydro-5H-benzo[e]pyrimido[5,4-b][1,4]diazepin-2-yl)amino)-3-ethoxyphenyl)piperidine-4-carboxamide] returned a half-inhibitory concentration (IC50) at HSP90α protein of 0.1 to 1 µM. Also, the EC50 in experiment [1] is less than 0.1 µM; in experiment [2], 0.1 to 1 µM.
`CCOc1cc(N2CCC(C(=O)N3CCN(Cc4ccc(-n5c(O)nnc5-c5cc(C(C)C)c(O)cc5O)cc4C(F)(F)F)CC3)CC2)ccc1Nc1ncc2c(n1)N(C)c1ccccc1C(=O)N2C` [Compound 046, 2-((4-(4-(4-(4-(3-(2,4-dihydroxy-5-isopropylphenyl)-5-hydroxy-4H-1,2,4-triazol-4-yl)-2-(trifluoromethyl)benzyl)piperazine-1-carbonyl)piperidin-1-yl)-2-ethoxyphenyl)amino)-5,11-dimethyl-5,11-dihydro-6H-benzo[e]pyrimido[5,4-b][1,4]diazepin-6-one]: on HSP90α protein, the IC50 is 0.1 to 1 µM. The results for the EC50 in experiment [1] and in experiment [2] were less than 0.1 µM and 0.1 to 1 µM, respectively.
For the compound `CCOc1cc(N2CCC(C(=O)N3CCN(Cc4ccc(-n5c(O)nnc5-c5cc(C)c(O)cc5O)cc4)CC3)CC2)ccc1Nc1ncc2c(n1)N(C)c1ccccc1C(=O)N2C` [Compound 048, 2-((4-(4-(4-(4-(3-(2,4-dihydroxy-5-methylphenyl)-5-hydroxy-4H-1,2,4-triazol-4-yl)benzyl)piperazine-1-carbonyl)piperidin-1-yl)-2-ethoxyphenyl)amino)-5,11-dimethyl-5,11-dihydro-6H-benzo[e]pyrimido[5,4-b][1,4]diazepin-6-one], on HSP90α protein, the IC50 fell in the range of 0.1 to 1 µM. For the same compound, the EC50 in experiment [1] was less than 0.1 µM; in experiment [2], 0.1 to 1 µM.
As for `CCOc1cc(N2CCC(C(=O)N3CCN(Cc4ccc(-n5c(O)nnc5-c5cc(C(C)C)c(O)cc5O)cc4)[C@H](C)C3)CC2)ccc1Nc1ncc2c(n1)N(C)c1ccccc1C(=O)N2C` [Compound 051, (R)-2-((4-(4-(4-(4-(3-(2,4-dihydroxy-5-isopropylphenyl)-5-hydroxy-4H-1,2,4-triazol-4-yl)benzyl)-3-methylpiperazine-1-carbonyl)piperidin-1-yl)-2-ethoxyphenyl)amino)-5,11-dimethyl-5,11-dihydro-6H-benzo[e]pyrimido[5,4-b][1,4]diazepin-6-one], the concentration for half-maximal inhibition (IC50) at HSP90α protein lay within 0.1 to 1 µM. Also, the EC50 in experiment [1] and in experiment [2] was less than 0.1 µM in each case.
Turning to `CCOc1cc(N2CCC(C(=O)N3CCN(Cc4ccc(-n5c(O)nnc5-c5cc(C(C)C)c(O)cc5O)cc4)[C@@H](C)C3)CC2)ccc1Nc1ncc2c(n1)N(C)c1ccccc1C(=O)N2C` [Compound 055, (S)-2-((4-(4-(4-(4-(3-(2,4-dihydroxy-5-isopropylphenyl)-5-hydroxy-4H-1,2,4-triazol-4-yl)benzyl)-3-methylpiperazine-1-carbonyl)piperidin-1-yl)-2-ethoxyphenyl)amino)-5,11-dimethyl-5,11-dihydro-6H-benzo[e]pyrimido[5,4-b][1,4]diazepin-6-one], on HSP90α protein, the IC50 lay in the range of 0.1 to 1 µM. Moreover, the EC50 was less than 0.1 µM in experiment [1] and 0.1 to 1 µM in experiment [2].
As to `CCOc1cc(N2CCC(C(=O)N3CCC(N4CCN(Cc5ccc(-n6c(O)nnc6-c6cc(C(C)C)c(O)cc6O)cc5F)CC4)CC3)CC2)ccc1Nc1ncc2c(n1)N(S(C)(=O)=O)c1ccccc1C(=O)N2C` [Compound 059, 2-((4-(4-(4-(4-(4-(3-(2,4-dihydroxy-5-isopropylphenyl)-5-hydroxy-4H-1,2,4-triazol-4-yl)-2-fluorobenzyl)piperazin-1-yl)piperidine-1-carbonyl)piperidin-1-yl)-2-ethoxyphenyl)amino)-5-methyl-11-(methylsulfonyl)-5,11-dihydro-6H-benzo[e]pyrimido[5,4-b][1,4]diazepin-6-one], the half-maximal inhibitory concentration (IC50) on HSP90α protein is less than 0.1 µM. Further, the EC50 in experiment [1] and in experiment [2] was less than 0.1 µM throughout.
`CCOc1cc(N2CCC(C(=O)N3CCC(CN4CCN(Cc5ccc(-n6c(C(N)=O)nnc6-c6cc(CC)c(O)cc6O)cc5)CC4)CC3)CC2)ccc1Nc1ncc2c(n1)N(S(C)(=O)=O)c1ccccc1C(=O)N2C` [Compound 063, 4-(4-((4-((1-(1-(3-ethoxy-4-((5-methyl-11-(methylsulfonyl)-6-oxo-6,11-dihydro-5H-benzo[e]pyrimido[5,4-b][1,4]diazepin-2-yl)amino)phenyl)piperidine-4-carbonyl)piperidin-4-yl)methyl)piperazin-1-yl)methyl)phenyl)-5-(5-ethyl-2,4-dihydroxyphenyl)-4H-1,2,4-triazole-3-carboxamide] returned an IC50 at HSP90α protein of less than 0.1 µM. The EC50 in experiment [1] and in experiment [2] was less than 0.1 µM each time.
Consider `CCOc1cc(N2CCC(C(=O)N3CCC(N4CCN(Cc5ccc(-n6c(O)nnc6-c6cc(C(C)C)c(O)cc6O)cc5)CC4)CC3)CC2)ccc1Nc1ncc2c(n1)N(S(C)(=O)=O)c1ccccc1C(=O)N2C` [Compound 064, 2-((4-(4-(4-(4-(4-(3-(2,4-dihydroxy-5-isopropylphenyl)-5-hydroxy-4H-1,2,4-triazol-4-yl)benzyl)piperazin-1-yl)piperidine-1-carbonyl)piperidin-1-yl)-2-ethoxyphenyl)amino)-5-methyl-11-(methylsulfonyl)-5,11-dihydro-6H-benzo[e]pyrimido[5,4-b][1,4]diazepin-6-one], for which the half-inhibitory concentration (IC50) on HSP90α protein was less than 0.1 µM. Also, the EC50 in experiment [1] and in experiment [2] was less than 0.1 µM throughout.
`CCOc1cc(N2CCC(C(=O)NCCOCCOc3ccc(Nc4ccc(-n5nc(C(F)(F)F)c6c5CC(C)(C)CC6=O)cc4C(N)=O)cc3)CC2)ccc1Nc1ncc2c(n1)N(S(C)(=O)=O)c1ccccc1C(=O)N2C` [Compound 067, N-(2-(2-(4-((2-carbamoyl-4-(6,6-dimethyl-4-oxo-3-(trifluoromethyl)-4,5,6,7-tetrahydro-1H-indazol-1-yl)phenyl)amino)phenoxy)ethoxy)ethyl)-1-(3-ethoxy-4-((5-methyl-11-(methylsulfonyl)-6-oxo-6,11-dihydro-5H-benzo[e]pyrimido[5,4-b][1,4]diazepin-2-yl)amino)phenyl)piperidine-4-carboxamide] returned a 50% inhibitory concentration (IC50) at HSP90α protein of more than 1 µM. Besides, the EC50 in experiment [1] is 0.1 to 1 µM; in experiment [2] it was more than 1 µM.

For the origin of these results see US20240124460A1, “METHODS AND COMPOSITIONS FOR TARGETED PROTEIN DEGRADATION” (Ranok Therapeutics (Hangzhou) Co. Ltd., priority 2020, published 2024).
